Laboratory results: patent US7087642B2 (priority 1999, dated 2006)
Like-named read-outs stand apart in the source and are kept apart here.

Columns and labels:
IMPDH human type II = IMPDH human type II (Homo sapiens, UniProt P12268); experiment: biochemical
human PBMC T cells = experiment: cells; assay type: cell-based; details: read-out: T-cells (IC50)
human PBMC B cells = experiment: cells; assay type: cell-based; details: read-out: B-cells (IC50)

Structure (SMILES)	Ki (IMPDH human type II; read-out: Ki)	IC50 (human PBMC T cells; Homo sapiens, 72 h)	IC50 (human PBMC B cells; Homo sapiens, 72 h)	further results
CC[C@H](CO)OC(=O)N[C@H](C)c1cccc(NC(=O)Nc2ccc(C#N)c(OC)c2)c1 [Compound 179]	> 50 nM	> 1000 nM	> 1000 nM	–
COc1cc(NC(=O)Nc2cccc(CNC(=O)OC(CCN(C)CC(C)C)c3ccccc3)c2)ccc1-c1cnco1 (centres unmarked) [Compound 124]	> 50 nM	–	–	–
CCC(CC#N)OC(=O)N[C@H](C)c1cccc(NC(=O)Nc2ccc(-c3cnco3)c(OC)c2)c1 (some centres unmarked) [Compound 171]	–	100 to 1000 nM	< 100 nM	–
COc1cc(NC(=O)Nc2cccc(CNC(=O)OC3COCC3OCC(=O)OC(C)(C)C)c2)ccc1-c1cnco1 (centres unmarked) [Compound 72]	< 10 nM	–	–	IC50 (human PBMC T cells): 100 to 1000 nM; IC50 (human PBMC B cells): 100 to 1000 nM
COc1cc(NC(=O)Nc2cccc(CNC(=O)OC3COCC3OCC(=O)O)c2)ccc1-c1cnco1 (centres unmarked) [Compound 71]	< 10 nM	> 1000 nM	> 1000 nM	–
COc1cc(NC(=O)Nc2cccc(CNC(=O)O[C@H](CCN(C)C)c3ccccc3)c2)ccc1-c1cnco1 [Compound 39]	< 10 nM	–	–	IC50 (human PBMC T cells): 100 to 1000 nM; IC50 (human PBMC B cells): 100 to 1000 nM
CC[C@H](COC(C)=O)OC(=O)NCc1cccc(NC(=O)Nc2ccc(-c3cnco3)c(OC)c2)c1 [Compound 94]	< 10 nM	–	–	–
COc1cc(NC(=O)Nc2cccc(CNC(=O)O[C@H](CN3CC[S+]([O-])CC3)c3ccccc3)c2)ccc1-c1cnco1 [Compound 106]	> 50 nM	–	–	–
COc1cc(NC(=O)Nc2cccc([C@H](C)NC(=O)OC3CCOC3)c2)ccc1C#N (some centres unmarked) [Compound 184]	–	100 to 1000 nM	100 to 1000 nM	–
COc1cc(NC(=O)Nc2cccc(CNC(=O)OC3CCC[C@H]3N3CCOCC3)c2)ccc1-c1cnco1 (some centres unmarked) [Compound 86]	–	> 1000 nM	> 1000 nM	–
CCCN(CC(OC(=O)NCc1cccc(NC(=O)Nc2ccc(-c3cnco3)c(OC)c2)c1)c1ccccc1)C1CC1 (centres unmarked) [Compound 136]	> 50 nM	–	–	–
COc1cc(NC(=O)Nc2cccc(CNC(=O)O[C@H](CC#N)COCc3ccccc3)c2)ccc1-c1cnco1 [Compound 55]	< 10 nM	–	–	–
CCCN(CC)CC(OC(=O)NCc1cccc(NC(=O)Nc2ccc(-c3cnco3)c(OC)c2)c1)c1ccccc1 (centres unmarked) [Compound 111]	–	100 to 1000 nM	100 to 1000 nM	–
COc1cc(NC(=O)Nc2cccc(CNC(=O)O[C@H](CN(CC3CC3)C3CC3)c3ccccc3)c2)ccc1-c1cnco1 [Compound 137]	> 50 nM	–	–	–
CCC(CN)OC(=O)NCc1cccc(NC(=O)Nc2ccc(-c3cnco3)c(OC)c2)c1 (centres unmarked) [Compound 161]	< 10 nM	–	–	–
CCC(NC(=O)O[C@H](CC)CC#N)c1cccc(NC(=O)Nc2ccc(C#N)c(OC)c2)c1 (some centres unmarked) [Compound 178]	> 50 nM	–	–	–
CCN(CC1CC1)C[C@@H](OC(=O)NCc1cccc(NC(=O)Nc2ccc(-c3cnco3)c(OC)c2)c1)c1ccccc1 [Compound 134]	10 to 50 nM	–	–	–
CCC(CO)OC(=O)N[C@@H](C)c1cccc(NC(=O)Nc2ccc(-c3cnco3)c(OC)c2)c1 (some centres unmarked) [Compound 164]	–	100 to 1000 nM	100 to 1000 nM	–
COc1cc(NC(=O)Nc2cccc(CNC(=O)O[C@@H]3CC[C@H](OC(C)=O)C3)c2)ccc1-c1cnco1 [Compound 85]	> 50 nM	–	–	–
CCC(COC(N)=O)OC(=O)NCc1cccc(NC(=O)Nc2ccc(-c3cnco3)c(OC)c2)c1 (centres unmarked) [Compound 159]	–	100 to 1000 nM	100 to 1000 nM	–
CCC(CO)OC(=O)N[C@@H](C)c1cccc(NC(=O)Nc2ccc(C#N)c(OC)c2)c1 (some centres unmarked) [Compound 176]	–	> 1000 nM	> 1000 nM	–
CC[C@@H](CC#N)OC(=O)N[C@@H](C)c1cccc(NC(=O)Nc2ccc(C#N)c(OC)c2)c1 [Compound 168]	–	–	–	Ki (IMPDH human type II): 10 to 50 nM

Structure (SMILES)	Ki (IMPDH human type II; read-out: Ki)	IC50 (human PBMC T cells; Homo sapiens, 72 h)	IC50 (human PBMC B cells; Homo sapiens, 72 h)	further results
CC[C@H](COC(N)=O)OC(=O)NCc1cccc(NC(=O)Nc2ccc(-c3cnco3)c(OC)c2)c1 [Compound 159]	< 10 nM	–	–	–
COc1cc(NC(=O)Nc2cccc(CNC(=O)OC(CCl)CC#N)c2)ccc1-c1cnco1 (centres unmarked) [Compound 25]	–	100 to 1000 nM	100 to 1000 nM	–
CCN(CC)C[C@@H](OC(=O)NC(C)c1cccc(NC(=O)Nc2ccc(-c3cnco3)c(OC)c2)c1)c1ccccc1 (some centres unmarked) [Compound 167]	> 50 nM	–	–	–
CC[C@H](COC(=O)CNC(=O)OC(C)(C)C)OC(=O)NCc1cccc(NC(=O)Nc2ccc(-c3cnco3)c(OC)c2)c1 [Compound 93]	10 to 50 nM	–	–	–
CCN(CC(OC(=O)NCc1cccc(NC(=O)Nc2ccc(-c3cnco3)c(OC)c2)c1)c1ccccc1)C1CC1 (centres unmarked) [Compound 135]	> 50 nM	–	–	–
CC[C@H](COCc1ccccc1)OC(=O)NCc1cccc(NC(=O)Nc2ccc(-c3cnco3)c(OC)c2)c1 [Compound 54]	< 10 nM	–	–	–
CCN(CC1CC1)CC(OC(=O)NCc1cccc(NC(=O)Nc2ccc(-c3cnco3)c(OC)c2)c1)c1ccccc1 (centres unmarked) [Compound 134]	–	100 to 1000 nM	100 to 1000 nM	–
CC[C@H](CC#N)OC(=O)N[C@H](C)c1cccc(NC(=O)Nc2ccc(-c3cnco3)c(OC)c2)c1 [Compound 171]	> 50 nM	–	–	–
CC[C@H](COC(=O)CN)OC(=O)NCc1cccc(NC(=O)Nc2ccc(-c3cnco3)c(OC)c2)c1 [Compound 95]	10 to 50 nM	–	–	–
COc1cc(NC(=O)Nc2cccc(CNC(=O)O[C@@H](CC#N)CN3CCCCC3)c2)ccc1-c1cnco1 [Compound 21]	< 10 nM	–	–	–
CC[C@@H](CO)OC(=O)N[C@@H](C)c1cccc(NC(=O)Nc2ccc(C#N)c(OC)c2)c1 [Compound 176]	> 50 nM	–	–	–
COc1cc(NC(=O)Nc2cccc(CNC(=O)O[C@H](CO)CCO)c2)ccc1-c1cnco1 [Compound 141]	10 to 50 nM	–	–	–
COc1cc(NC(=O)Nc2cccc(CNC(=O)O[C@H](CCC#N)COCc3ccccc3)c2)ccc1-c1cnco1 [Compound 53]	< 10 nM	–	–	–
CC[C@H](CC#N)OC(=O)N[C@@H](C)c1cccc(NC(=O)Nc2ccc(C#N)c(Cl)c2)c1 [Compound 183]	–	–	–	Ki (IMPDH human type II): 10 to 50 nM
CCOc1cc(NC(=O)Nc2cccc([C@H](C)NC(=O)O[C@H]3CCOC3)c2)ccc1C#N [Compound 186]	> 50 nM	–	–	–
CCC(CC#N)OC(=O)N[C@@H](C)c1cccc(NC(=O)Nc2ccc(C#N)c(OC)c2)c1 (some centres unmarked) [Compound 168]	–	100 to 1000 nM	100 to 1000 nM	–
CCN(CC)CC(OC(=O)NCc1cccc(NC(=O)Nc2ccc(-c3cnco3)c(OC)c2)c1)c1nccs1 (centres unmarked) [Compound 142]	10 to 50 nM	–	–	–
COc1cc(NC(=O)Nc2cccc(CNC(=O)OC(CCN(C)C(=O)OC(C)(C)C)c3ccccc3)c2)ccc1-c1cnco1 (centres unmarked) [Compound 31]	10 to 50 nM	–	–	–
COc1cc(NC(=O)Nc2cccc(CNC(=O)OC(CC#N)CN3CCCCC3)c2)ccc1-c1cnco1 (centres unmarked) [Compound 21]	–	100 to 1000 nM	> 1000 nM	–
COc1cc(NC(=O)Nc2cccc(CNC(=O)OC(CN3CCSCC3)c3ccccc3)c2)ccc1-c1cnco1 (centres unmarked) [Compound 105]	–	100 to 1000 nM	100 to 1000 nM	–
COc1cc(NC(=O)Nc2cccc(CNC(=O)O[C@H](CN3CCSCC3)c3ccccc3)c2)ccc1-c1cnco1 [Compound 105]	< 10 nM	–	–	–
CCCN(CC)C[C@@H](OC(=O)NCc1cccc(NC(=O)Nc2ccc(-c3cnco3)c(OC)c2)c1)c1ccccc1 [Compound 111]	> 50 nM	–	–	–

Structure (SMILES)	Ki (IMPDH human type II; read-out: Ki)	IC50 (human PBMC T cells; Homo sapiens, 72 h)	IC50 (human PBMC B cells; Homo sapiens, 72 h)	further results
CC[C@@H](CC#N)OC(=O)N[C@H](C)c1cccc(NC(=O)Nc2ccc(C#N)c(OC)c2)c1 [Compound 172]	–	–	–	Ki (IMPDH human type II): > 50 nM
CCC(CNC(=O)OC(C)(C)C)OC(=O)NCc1cccc(NC(=O)Nc2ccc(-c3cnco3)c(OC)c2)c1 (centres unmarked) [Compound 160]	> 50 nM	–	–	–
COc1cc(NC(=O)Nc2cccc(CNC(=O)OC(CC#N)CN(C)C)c2)ccc1-c1cnco1 (centres unmarked) [Compound 17]	–	> 1000 nM	> 1000 nM	–
COc1cc(NC(=O)Nc2cccc(CNC(=O)OC(CN3CC[S+]([O-])CC3)c3ccccc3)c2)ccc1-c1cnco1 (centres unmarked) [Compound 106]	–	< 100 nM	< 100 nM	–
CCN(CC)CC(OC(=O)NCc1cccc(NC(=O)Nc2ccc(-c3cnco3)c(OC)c2)c1)C1CCCCC1 (centres unmarked) [Compound 157]	–	< 100 nM	< 100 nM	–
CC[C@H](COS(N)(=O)=O)OC(=O)NCc1cccc(NC(=O)Nc2ccc(-c3cnco3)c(OC)c2)c1 [Compound 138]	< 10 nM	–	–	–
CCC(COS(N)(=O)=O)OC(=O)NCc1cccc(NC(=O)Nc2ccc(-c3cnco3)c(OC)c2)c1 (centres unmarked) [Compound 138]	–	100 to 1000 nM	100 to 1000 nM	–
CCN(CC)CCC(OC(=O)NCc1cccc(NC(=O)Nc2ccc(-c3cnco3)c(OC)c2)c1)c1ccccc1 (centres unmarked) [Compound 140]	–	–	–	Ki (IMPDH human type II): > 50 nM
CCC(NC(=O)O[C@@H](CC)CC#N)c1cccc(NC(=O)Nc2ccc(C#N)c(OC)c2)c1 (some centres unmarked) [Compound 177]	> 50 nM	–	–	–
COc1cc(NC(=O)Nc2cccc([C@H](C)NC(=O)O[C@@H]3CCOC3)c2)ccc1C#N [Compound 184]	10 to 50 nM	–	–	–
CCC(CC#N)OC(=O)N[C@@H](C)c1cccc(NC(=O)Nc2ccc(C#N)c(Cl)c2)c1 (some centres unmarked) [Compound 183]	–	100 to 1000 nM	100 to 1000 nM	–
CC[C@H](CO)OC(=O)N[C@H](C)c1cccc(NC(=O)Nc2ccc(-c3cnco3)c(OC)c2)c1 [Compound 165]	> 50 nM	–	–	–
CC[C@H](CO)OC(=O)N[C@@H](C)c1cccc(NC(=O)Nc2ccc(-c3cnco3)c(OC)c2)c1 [Compound 164]	10 to 50 nM	–	–	–
COc1cc(NC(=O)Nc2cccc(CNC(=O)O[C@@H]3CCC[C@H]3N3CCOCC3)c2)ccc1-c1cnco1 [Compound 86]	10 to 50 nM	–	–	–
COc1cc(NC(=O)Nc2cccc(CNC(=O)OC(CCN3CCCC3)c3ccccc3)c2)ccc1-c1cnco1 (centres unmarked) [Compound 56]	< 10 nM	–	100 to 1000 nM	–
CC[C@H](COP(=O)(O)O)OC(=O)NCc1cccc(NC(=O)Nc2ccc(-c3cnco3)c(OC)c2)c1 [Compound 96]	10 to 50 nM	–	–	–
CCN(C)CCC(OC(=O)NCc1cccc(NC(=O)Nc2ccc(-c3cnco3)c(OC)c2)c1)c1ccccc1 (centres unmarked) [Compound 139]	–	–	–	Ki (IMPDH human type II): > 50 nM
COc1cc(NC(=O)Nc2cccc(CNC(=O)O[C@H](CC#N)CN(C)C)c2)ccc1-c1cnco1 [Compound 17]	< 10 nM	–	–	–
COc1cc(NC(=O)Nc2cccc(CNC(=O)O[C@@H](CCl)CC#N)c2)ccc1-c1cnco1 [Compound 25]	< 10 nM	–	–	–
CCC(CC#N)OC(=O)N[C@H](C)c1cccc(NC(=O)Nc2ccc(C#N)c(OC)c2)c1 (some centres unmarked) [Compound 172]	–	> 1000 nM	–	IC50 (human PBMC B cells): > 1000 nM
CCN(CC)C[C@@H](OC(=O)NCc1cccc(NC(=O)Nc2ccc(-c3cnco3)c(OC)c2)c1)C1CCCCC1 [Compound 157]	10 to 50 nM	–	–	–
